Reference: PMC9309159, “Identification of heptapeptides targeting a lethal bacterial strain in septic mice through an integrative approach” (Signal Transduction and Targeted Therapy, 2022)

Legend:
MSI001-Amp^r bacteria = assay: Growth of ampicillin-resistant MSI001 bacteria; assay type: cell-based, Escherichia coli; settings: 1×10^3 CFU/ml, peptide 1 μmol/L, 37°C, 3 hours, colony count, n=3
Method: (§1) Pseudomonas aeruginosa (ATCC27853) was purchased from American Type Culture Collection (ATCC) and cultured in Luria Broth (LB) medium with shaking at 37 °C. For construction of ampicillin-resistant MSI001 strain (MSI001-Amp^r), the pET14b plasmid carrying Amp^r marker gene was introduced into the wild type MSI001 strain. The MSI001-Amp^r strain was cultured in LB medium supplemented with Ampicillin of 100 µg/ml at 37 °C.
(§2) Figure S4. Inhibitory effect of LL37 and VTK-LL37 fusion peptides on bacterial growth. a Effect of VTK-LL37 on the growth of Ampicillin resistant (Amp^r) MSI001 bacteria. The bacterial strain MSI001 was transfected with pET14b plasmid to produce an Ampicillin resistant (Amp^r) MSI001 strain. The VTK-LL37 or LL37 peptide was added to the cultured MSI001-Amp^r bacteria (1×10^3 CFU/ml) with a final concentration of 1 μmol/L. After incubation with the VTK-LL37 or LL37 peptides at 37°C for 3 hours, bacterial colonies were counted. b Effect of VTK-LL37 on the growth of Pseudomonas aeruginosa. The bacterial colonies of Pseudomonas aeruginosa were counted as above. […]

[1] = tested on: Pseudomonas aeruginosa (ATCC27853); assay: Growth of Pseudomonas aeruginosa; assay type: cell-based; settings: peptide 1 μmol/L, 37°C, 3 hours, colony count, n=3
Method: as §1, §2

CLP mice = assay: Survival of CLP mice; assay type: in vivo, C57BL/6 mice; settings: peptide 0.2 nmol/g i.v. 1 h after CLP; observed up to 168 h; Kaplan-Meier; n = 15
Description: (§3) Wild-type C57 mice were intraperitoneally injected with MSI001 bacteria (6 × 10^6 CFU/g body weight) to reproduce a sepsis model. […] Normal saline (NS) was used as control. […] One hour after CLP modeling, the mice were intravenously injected with LL37 or VTK-LL37 peptide at a dosage of 0.2 nmol/g body weight. Equal volume of normal saline (NS) was used as control. […] The mice were intraperitoneally injected with MSI001 bacteria. One hour later, the mice were subjected to tail vein injection (TVI) with VTK-LL37 (VTK-LL37 group), LL37 (LL37 group) or an equivalent volume of NS (sepsis group). Wild-type mice without modeling were used as controls (control group). The blood bacteria were quantitated as colony forming units (CFU) 12 h after injection of bacteria. n = 8. *P < 0.05, compared to control; ^#P < 0.05, compared to sepsis group^; ΔP < 0.05, compared to LL37 group. Results are expressed as the median with range. d Suppression of VTK-LL37 on the production of HMGB1 in the blood of septic mice. […] Twelve hours after bacterial injection, HMGB1 in the serum was quantitated by ELISA. n = 8. *P < 0.05, compared to control; ^#P < 0.05, compared to sepsis group; ^ΔP < 0.05, compared to LL37 group^. Results are expressed as the mean ± SD. e, f Protective effect of VTK-LL37 against organ damage in mice subjected to bacterial injection. […]

[2] = tested on: liver, kidney, heart and lung; assay: Histopathological evaluation of organ injury in septic mice; assay type: in vivo, C57BL/6 mice; settings: peptide i.v. 1 h after sepsis modeling; tissues at 12 h; HE staining, injury scores; n = 6
Description: as §3

**Q.** What does the source list for “CVTKLGSLCVPGVGLLGDFFRKSKEKIGKEFKRIVQRIKDFLRNLVPRTES [VTK-LL37]”?
**A.** inhibitive effect on growth of ampicillin-resistant MSI001 (MSI001-Amp^r bacteria): more significant inhibitive effect on the bacterial growth of the ampicillin-resistant MSI001 bacteria in comparison with LL37; inhibitory effect on growth of Pseudomonas aeruginosa [1]: showed inhibitory effect on the growth of Pseudomonas aeruginosa; survival of CLP mice (CLP mice): significantly increased the survival of sepsis mice induced by CLP modeling; sepsis-induced organ injury [2]: alleviated sepsis-induced injury to multiple organs, including the liver, lung, kidney and heart
